The values below come from patent US20080194646A1, “Methods For Avoiding Edema in the Treatment of Metabolic, Inflammatory, and Cardiovascular Disorders” (priority 2005, published 2008).

Series [1] relates to rats. In words: separate animal studies, heart weight and fluid accumulation (rats). Format: in vivo. Conditions: therapeutically relevant doses, data not shown.
For series [2], the system named is human subjects also receiving glyburide. In words: 14 days of treatment in human subjects also receiving glyburide. The series is classed as in vivo. From the text: The data for pioglitazone (Actos) is taken from Goldberg R B et al., Diabetes Care 28(7):1547-54 (2005), which is incorporated herein by reference.
The test system of series [3] is type 2 diabetics with inadequate control on insulin. In words: two randomized, double-blind, placebo-controlled studies on type 2 diabetics with inadequate control on insulin. Format: in vivo, human. The text has this:
Example 9 presents the results of two randomized, double-blind, placebo-controlled, multi-centre studies on type 2 diabetics with inadequate control on insulin. […] Both studies were about 4 months long, with a stabilization/run in period for 2 to 4 weeks and a 3 month treatment period. Endpoints included fasting plasma glucose (FPG), HbA1c, weight, and the incidence of edema.

Series [4] has as its target T1, PPARγ (Homo sapiens, UniProt P37231).
T1 sequence (P37231 1-505): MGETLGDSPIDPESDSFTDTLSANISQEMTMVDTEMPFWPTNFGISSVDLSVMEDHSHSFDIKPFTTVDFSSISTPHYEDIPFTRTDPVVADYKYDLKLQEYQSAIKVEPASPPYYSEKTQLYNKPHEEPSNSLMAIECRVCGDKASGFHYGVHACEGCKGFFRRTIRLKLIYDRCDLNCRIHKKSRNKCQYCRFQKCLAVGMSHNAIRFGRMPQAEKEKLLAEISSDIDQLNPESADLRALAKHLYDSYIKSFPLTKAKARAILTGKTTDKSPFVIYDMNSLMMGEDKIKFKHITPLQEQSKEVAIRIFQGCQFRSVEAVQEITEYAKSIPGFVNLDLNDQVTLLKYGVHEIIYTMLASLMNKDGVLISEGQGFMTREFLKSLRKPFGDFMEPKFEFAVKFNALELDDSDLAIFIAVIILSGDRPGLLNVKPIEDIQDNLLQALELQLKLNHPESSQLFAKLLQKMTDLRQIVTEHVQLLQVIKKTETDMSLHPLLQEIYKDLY
In words: PPARγ partial agonism (Example 8, FIG. 6). The series is classed as cell-based.

The test system of series [5] is monkeys. In words: separate animal studies, heart weight and fluid accumulation (monkeys). Format: in vivo. Conditions: therapeutically relevant doses, data not shown.
For series [6], the system named is C57BL/6j ob/ob Mice. In words: glucose lowering activity of halofenate analogs in ob/ob mice (Example 14). The series is classed as in vivo. Particulars: 125 mg/kg oral gavage once a day for 1-3 days; Student unpaired t-test. The protocol:
Male, 8-9 weeks old, C57BL/6J ob/ob mice were purchased from The Jackson Laboratory (Bar Harbor, Me., USA). Animals were housed (4-5 mice/cage) under standard laboratory conditions at 22±3° C. temperature and 50±20% relative humidity, and were maintained on a diet of Purina rodent chow and water ad libitum. Prior to treatment, blood was collected from the tail vein of each animal. Mice that had non-fasting plasma glucose levels between 250 and 500 mg/dl were used. Each treatment group consisted of 8-10 mice that were distributed so that the mean glucose levels were equivalent in each group at the start of the study. Mice were dosed orally by gavage once a day for 1-3 days with either vehicle, (−) halofenic acid, (+) analog 14, 29, 33, 34, 35, 36, 37, or 38 at 125 mg/kg or (−) analog 29, 36, 37 or 38 at 150 mg/kg. Compounds were delivered in a liquid formulation containing 5% (v/v) dimethyl sulfoxide (DMSO), 1% (v/v) tween 80 and 0.9% (w/v) methylcellulose. The gavage volume was 10 ml/kg. Blood samples were taken at 6 hours after the each dose and analyzed for plasma glucose. Food intake and body weight were measured daily. Plasma glucose concentrations were determined colorimetrically using glucose oxidase method (Sigma Chemical Co, St. Louis, Mo., USA). Significant difference between groups (comparing drug-treated to vehicle-treated) was evaluated using the Student unpaired t-test.

Series [7] concerns the target cytochrome P450 2C9 (Homo sapiens, UniProt P11712). Particulars: comparison of enantiomers and racemate; listed as (−) enantiomer of halofenic acid; cited from earlier work.
A short description of series [8]: plasma hydrolysis of prodrug esters of (−) CPTA. Format: in vitro ADME. Conditions: human plasma (heparinized, pooled), 37° C., 125 or 250 μM prodrug; read-out: Plasma T1/2. The method, then: This example illustrates the plasma hydrolysis of various prodrug esters of the (S)-enantiomer of CPTA at physiological conditions. Hydrolysis was monitored and analyzed by HPLC. The hydrolytic product was identified by comparison to authentic (−) CPTA and the hydrolytic rates were calculated.
Human plasma (heparinized, pooled) was obtained from Golden West Biololgicals Inc., USA; Plasma incubation was carried out in a Water Bath Shaker (New Brunswick Scientific, Inc.); Sample analyses were carried out on Agilent HPLC 1100 system.
Prepare 31.25 or 62.5 mM prodrug stock solutions in 100% DMSO. Add 4 μL of 31.25 or 62.5 mM prodrug stock solutions to 1.0 mL of plasma in a microcentrifuge tube to make plasma concentration at 125 or 250 μM, mix gently. Aliquots of 50 μL are transferred to 15 microcentrifuge vials. Three samples are immediately removed to a freezer at about −80° C. (0 time point), the remaining samples are incubated in a bath shaker at 37° C. Three samples are removed at 30 min, 2, 7 and 24 hr, and stored at −80° C. until analysis. The relative concentrations of MBX-compounds are determined by HPLC methods. If there are enough data points, the hydrolytic rate can be calculated using WinNonlin software. Table 10 provides a summary of plasma half-lives of some pro-drug esters and FIGS. 20A-20G illustrate the hydrolytic curves of those prodrug esters. […]

Bounds are passed on as bounds.

Sequence of cytochrome P450 2C9 (P11712 whole entry): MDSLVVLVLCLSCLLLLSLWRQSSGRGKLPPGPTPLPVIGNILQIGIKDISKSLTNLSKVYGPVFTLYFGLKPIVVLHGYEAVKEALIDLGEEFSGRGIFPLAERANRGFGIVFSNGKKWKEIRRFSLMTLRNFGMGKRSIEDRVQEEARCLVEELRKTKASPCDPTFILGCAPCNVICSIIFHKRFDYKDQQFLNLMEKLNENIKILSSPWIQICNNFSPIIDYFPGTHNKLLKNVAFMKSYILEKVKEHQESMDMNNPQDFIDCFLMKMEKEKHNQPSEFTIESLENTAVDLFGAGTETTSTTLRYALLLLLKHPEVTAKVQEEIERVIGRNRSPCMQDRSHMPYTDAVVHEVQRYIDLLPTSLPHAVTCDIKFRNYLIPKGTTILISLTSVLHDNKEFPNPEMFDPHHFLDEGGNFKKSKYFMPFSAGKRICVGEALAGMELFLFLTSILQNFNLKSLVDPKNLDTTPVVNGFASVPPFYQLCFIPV

On to `CC(=O)NCCOC(=O)C(Oc1cccc(C(F)(F)F)c1)c1ccc(Cl)cc1` (single isomer, unassigned; (-)) [(−) halofenate, (−) 2-acetamidoethyl 4-chlorophenyl-(3-trifluoromethylphenoxy)acetate], for which the “heart weight or fluid accumulation” value in series [1] and in series [5] was “did not cause increases at therapeutically relevant doses in heart weight or fluid accumulation” each time. The hsCRP levels result in series [2] (human patients, 14 days of treatment, dose dependent (FIG. 20)) is recorded as “lower hsCRP levels”. Moreover, in series [2] (patients also receiving glyburide, 14 days of treatment (FIG. 19)), the blood glucose levels result is given as “substantially lower blood glucose levels”. Further, the “adverse effects on selected parameters: upper GI tract, liver, blood, kidney” value in series [3] (additional analyses, data not shown) is on record as “not associated with an excess of adverse effects”. Besides, in series [3] (additional results, data not shown), the serum triglycerides result was “lowered serum triglycerides substantially”. In addition, in series [3] (both studies, dose range 200- to 600 mg (FIG. 17)), the “incidence of edema formation compared to combined placebo groups” value is on record as “did not increase the incidence of edema formation”. Also, the “Discontinued due to AE” value is given as 3 (4.1%) in series [3] (first study, 200 mg group) and 3 (4.3%) in series [3] (first study, 400 mg group). In addition, the “plasma glucose levels as judged by HbA1c compared to placebo” value in series [3] (first study, 200- and 400 mg (FIG. 8)) is reported as “lowered plasma glucose levels as judged by HbA1c levels”; in series [3] (first study, 200- and 400 mg, sites 60 and 70 removed (FIG. 15)), “lowered plasma glucose levels as judged by HbA1c levels”; in series [3] (second study, 600 mg, sites 60 and 70 removed (FIG. 13)) it was “lowered plasma glucose levels as judged by HbA1c levels”. Besides, in series [3] (first study, 200- and 400 mg (FIG. 9)), the “edema formation compared to placebo” value is reported as “prevented edema formation”. The “weight gain compared to placebo” value in series [3] (first study, 200- and 400 mg (FIG. 10)) was “did not induce weight gain”; in series [3] (second study, 600 mg (FIG. 18)) it was “did not induce weight gain”. Moreover, the “fasting plasma glucose levels compared to placebo” value in series [3] (first study, 200- and 400 mg, 3 month treatment (FIG. 7)) is given as “lowered fasting plasma glucose levels”; in series [3] (first study, 200- and 400 mg, sites 60 and 70 removed (FIG. 16)), “lowered fasting plasma glucose levels”; in series [3] (second study, 600 mg (FIG. 11)), “lowered fasting plasma glucose levels”; in series [3] (second study, 600 mg, sites 60 and 70 removed (FIG. 14)), “lowered fasting plasma glucose levels”. Moreover, the “plasma glucose levels as judged by HbA1c” value in series [3] (second study, 600 mg, all sites, placebo group demonstrated a comparable response (FIG. 12)) was “lowered plasma glucose levels as judged by HbA1c levels in the experimental group substantially from baseline”. Further, the “ability to induce PPARγ expression” value in series [4] is on record as “a few fold”. Moreover, the “antagonism of the agonist activity of rosiglitazone” value in series [4] was “significantly antagonizing the agonist activity of rosiglitazone”.
On to `O=C(O)C(Oc1cccc(C(F)(F)F)c1)c1ccc(Cl)cc1` (single isomer, unassigned; (-)) [(−)halofenic acid, (−) (3-trifluoromethylphenoxy) (4-chlorophenyl)acetic acid], for which the “plasma glucose concentrations vs vehicle” value in series [6] is listed as “significantly reduced plasma glucose concentrations at 6 hours”. The “inhibition of cytochrome P450 2C9” value in series [7] was “about twenty-fold less active”.
For the molecule `C=C/C=C(\C=C)C(=O)NCCOC(=O)C(Oc1cccc(C(F)(F)F)c1)c1ccc(Cl)cc1` (stereo not shown) [Compound 19.4], the half-life in series [8] was < 1 h.
